Test system: ethanol-induced ulcers
Assay: Necrotising agent model: ethanol-induced ulcers
Assay type: in vivo, rat
Procedure: (B) Necrotising agent model:
Using the necrotising agent model, ethanol in this case, described by Robert el al. (Gastroenterology, 77: 433, 1979), the activity of LV-200 was compared with that of Nt at equimolar dose levels and a control group which was administered vehicle.
The table below gives the lesion indices (in ulcerated area in mm) of the three groups studied, as well as the percentage inhibition of the ulcers of the treated groups over the control group (mean values±standard error of the mean).

CNC(=C[N+](=O)[O-])NCCSCc1csc(CN(C)C)n1 [Nt, N-methyl-N'-2-((2(dimethylaminomethyl)-4-thiazolyl)methylthio)ethyl-2-nitro-1,1-ethylenediamine]
inhibition of ulcers induced by absolute ethanol (in words) (absolute ethanol): does not inhibit ulcers
% inhibition of the ulcers over the control group (ethanol, equimolar doses of LV-200 (230 mg/kg) and Nt): 0%
lesion index (ulcerated area), mm lesions (ethanol, equimolar doses of LV-200 (230 mg/kg) and Nt, mean ± standard error of the mean, control 91.2 ± 17.7, LV-200 p < 0.01 vs control, p < 0.001 versus Nt (t test)): 97.7 ± 11.8 mm

Reference: patent publication US4956466A, “Thiazole derivatives and process for the preparation thereof” (Laboratorios Vinas, S. A., priority 1988, dated 1990)
